The text below walks through data of patent US12435061B2 (priority 2020, dated 2025).

Read-outs that look alike come from different tables or passages of the source.

The test concerns the target hTRPV3 (Homo sapiens (Human), UniProt Q8NET8). Briefly: Whole-cell patch clamp, hTRPV3 Phase 1 / Phase 2 currents. The format is cell-based. The procedure, abridged: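 Currents are activated by 20 μM 2-APB or by perfusate at 28 °C or warmer, in Ringer's solution, and quantified at ±80 mV.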
Setting [1] is: Phase 1 current, inward, whole-cell patch clamp, read-out: hTRPV3 Patch P1 Inwd.
Where [2] appears, read: Phase 1 current, read-out: hTRPV3 (nM) (Phase 1).
Setting [3] is: Phase 1 current, human TRPV3, read-out: hTRPV3 (nM) Phase 1.
[4] abbreviates: Phase 2 current, inward, whole-cell patch clamp, read-out: hTRPV3 Patch P2 Inwd.
The mark [5] stands for this setting: Phase 2 current, read-out: hTRPV3 (nM) (Phase 2).

hTRPV3, sequence (Q8NET8 whole entry): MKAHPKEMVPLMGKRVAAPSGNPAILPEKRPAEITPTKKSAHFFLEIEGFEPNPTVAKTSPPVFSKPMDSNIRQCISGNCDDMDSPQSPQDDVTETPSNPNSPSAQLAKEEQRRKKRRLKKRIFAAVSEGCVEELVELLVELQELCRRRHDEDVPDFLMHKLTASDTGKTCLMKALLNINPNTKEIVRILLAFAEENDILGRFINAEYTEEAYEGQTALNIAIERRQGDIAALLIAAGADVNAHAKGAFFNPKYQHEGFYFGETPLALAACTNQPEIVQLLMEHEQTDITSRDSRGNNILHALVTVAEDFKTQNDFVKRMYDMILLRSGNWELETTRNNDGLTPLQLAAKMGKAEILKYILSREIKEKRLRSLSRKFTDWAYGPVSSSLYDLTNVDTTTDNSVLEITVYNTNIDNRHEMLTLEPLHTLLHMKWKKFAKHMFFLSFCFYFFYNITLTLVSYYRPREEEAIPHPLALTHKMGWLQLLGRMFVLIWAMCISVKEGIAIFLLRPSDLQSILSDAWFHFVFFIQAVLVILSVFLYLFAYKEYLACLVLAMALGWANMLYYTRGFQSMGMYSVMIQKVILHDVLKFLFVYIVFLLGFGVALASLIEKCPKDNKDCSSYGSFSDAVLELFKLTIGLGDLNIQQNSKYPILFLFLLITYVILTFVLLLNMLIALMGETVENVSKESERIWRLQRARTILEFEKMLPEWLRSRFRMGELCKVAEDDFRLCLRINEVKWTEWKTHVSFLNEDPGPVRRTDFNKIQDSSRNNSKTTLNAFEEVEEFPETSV

Turning to `CCc1ccccc1Oc1ccc(N2CC[C@H](Oc3ncccc3Cl)C2)c(C#N)c1` [Compound 1-308], the IC50 under setting [1] was above 1000 nM and the IC50 under setting [2] is above 3200 nM.
Take `O=C(O)c1ccccc1N1CC[C@H](Oc2ccc(C(F)(F)F)cn2)C1` [Compound 1-24, (S)-2-(3-(5-(trifluoromethyl)pyridin-2-yloxy)pyrrolidin-1-yl)benzoic acid]: under setting [1], the IC50 was above 1000 nM.
As to `Cc1cccc(C(O)c2ccc(C3CCN(C(=O)c4ncccc4Cl)C3)c(CO)c2)c1` (single isomer, unassigned) [Compound 2-8], the IC50 was above 3200 nM under setting [3] and above 1000 nM under setting [1].
For `O=C(NCc1ccccc1)c1ccccc1N1CC[C@H](Oc2ccc(C(F)(F)F)cn2)C1` [Compound 1-51, (S)—N-benzyl-2-(3-(5-(trifluoromethyl)pyridin-2-yloxy)pyrrolidin-1-yl)benzamide], the IC50 under setting [4] was above 1000 nM.
For the compound `O=C(c1ccccc1N1CC[C@@H](Oc2ccc(C(F)(F)F)cn2)C1)N(Cc1ccccc1)Cc1ccccc1` [Compound 1-53, (R)—N,N-dibenzyl-2-(3-(5-(trifluoromethyl)pyridin-2-yloxy)pyrrolidin-1-yl)benzamide], under setting [1], the IC50 was above 1000 nM.
In the case of `O=C(Nc1ccccc1)c1ccc(N2CC[C@H](Oc3ncccc3Cl)C2)c(CCO)c1` [Compound 1-320, (S)-4-(3-(3-chloropyridin-2-yloxy)pyrrolidin-1-yl)-3-(2-hydroxyethyl)-N-phenylbenzamide], the IC50 is, setting by setting: under setting [1], above 1000 nM; under setting [2], around 4660 nM.
`COc1ccccc1N1CCC(Nc2ncc(C(F)(F)F)cc2Cl)C1` (stereo not drawn) [Compound 1-370, 3-chloro-N-(1-(2-methoxyphenyl)pyrrolidin-3-yl)-5-(trifluoromethyl)pyridin-2-amine]: under setting [1], the IC50 was above 1000 nM.
Take `O=C(c1ncccc1Cl)N1CCC(c2ccc(C(O)c3ccc(F)cc3)cc2CO)C1` (stereo not drawn) [Compound 2-4, (3-chloropyridin-2-yl)(3-(4-((4-fluorophenyl)(hydroxy)methyl)-2-(hydroxymethyl)phenyl)pyrrolidin-1-yl)methanone]: the IC50 was above 3200 nM under setting [3] and above 1000 nM under setting [1].
As to `O=C(c1ccc(N2CC[C@H](Nc3ccc(F)cn3)C2)c(CCO)c1)c1ccccc1Cl` [Compound 1-389, (S)-(2-chlorophenyl)(4-(3-(5-fluoropyridin-2-ylamino)pyrrolidin-1-yl)-3-(2-hydroxyethyl)phenyl)methanone], the IC50 was above 1000 nM under setting [1] and above 3200 nM under setting [2].
`OCc1cc(-c2ccccc2F)ccc1N1CC[C@H](Oc2ccc(C(F)(F)F)cn2)C1` [Compound 1-150, (S)-(2′-fluoro-4-(3-(5-(trifluoromethyl)pyridin-2-yloxy)pyrrolidin-1-yl)biphenyl-3-yl)methanol]: the IC50 under setting [1] was 10 to 100 nM, the IC50 under setting [2] is 71.7 nM, the IC50 under setting [4] lay within 10 to 100 nM and the IC50 under setting [5] was 74.7 nM.
With `O=C(NCc1ccccc1)c1ccccc1N1CC[C@@H](Oc2ccc(C(F)(F)F)cn2)C1` [Compound 1-50, (R)—N-benzyl-2-(3-(5-(trifluoromethyl)pyridin-2-yloxy)pyrrolidin-1-yl)benzamide], the IC50 is, setting by setting: under setting [1], above 1000 nM; under setting [4], above 1000 nM.
Regarding `N#Cc1ccc(N2CC[C@H](Oc3ccc(C(F)(F)F)cn3)C2)c(C(N)=O)c1` [Compound 1-23, (S)-5-cyano-2-(3-(5-(trifluoromethyl)pyridin-2-yloxy)pyrrolidin-1-yl)benzamide], the IC50 under setting [1] was above 1000 nM.
As to `OCCc1cc(C(O)c2cccc(Cl)c2)ccc1N1CC[C@H](Oc2ncccc2Cl)C1` (stereo partly drawn) [Compound 1-329, 2-(5-((3-chlorophenyl)(hydroxy)methyl)-2-((S)-3-(3-chloropyridin-2-yloxy)pyrrolidin-1-yl)phenyl)ethanol], the IC50 is above 1000 nM under setting [1] and 3100 nM under setting [2].
The corresponding values for `CCc1ccccc1-c1ccc(N2CC[C@H](Oc3ccc(C)cn3)C2)c(CCO)n1` [Compound 1-218, (S)-2-(6-(2-ethylphenyl)-3-(3-(5-methylpyridin-2-yloxy)pyrrolidin-1-yl)pyridin-2-yl)ethanol] are 100 to 1000 nM and 614 nM.
Regarding `CCc1ccccc1-c1ccc(N2CC[C@H](Oc3ccc(C(F)(F)F)cn3)C2)c(CO)c1` [Compound 1-149, (S)-(2′-ethyl-4-(3-(5-(trifluoromethyl)pyridin-2-yloxy)pyrrolidin-1-yl)biphenyl-3-yl)methanol], the IC50 under setting [1] was 10 to 100 nM, the IC50 under setting [2] stood at 34.7 nM, the IC50 under setting [4] is below 10 nM and the IC50 under setting [5] was determined as 10.7 nM.
Take `CCc1ccccc1Oc1ccc(N2CC[C@H](Oc3ncccc3Cl)C2)c(C(N)=O)c1` [Compound 1-324]: for the setting “Phase 1 current”, the “hTRPV3 (nM) (Phase 1)” value is recorded as “Incomplete Block (Phase 1)”.
For the compound `COCc1ccccc1Oc1ccc(N2CC[C@H](Oc3ncccc3F)C2)c(CCO)c1` [Compound 1-351, (S)-2-(2-(3-(3-fluoropyridin-2-yloxy)pyrrolidin-1-yl)-5-(2-(methoxymethyl)phenoxy)phenyl)ethanol], the IC50 runs as follows: under setting [1], 100 to 1000 nM; under setting [2], 461 nM.
In the case of `CC(C)c1ccccc1Oc1ccc(C2CCN(Cc3ccc(Cl)cn3)C2)c(CO)c1` (stereo not drawn) [Compound 2-91, (2-(1-((5-chloropyridin-2-yl)methyl)pyrrolidin-3-yl)-5-(2-isopropylphenoxy)phenyl)methanol], the IC50 is, setting by setting: under setting [3], 325 nM; under setting [1], 100 to 1000 nM.
For the compound `Cc1cccnc1O[C@H]1CCN(c2ccc(Oc3ccccc3)cc2C(N)=O)C1` [Compound 1-163], the IC50 is, setting by setting: under setting [1], above 1000 nM; under setting [2], 2180 nM.
On to `OCc1cc(Oc2ccc(Cl)cc2)ccc1N1C[C@@H](O)[C@H](Oc2ccc(C(F)(F)F)cn2)C1` [Compound 1-285], for which the IC50 by setting is: under setting [1], above 1000 nM; under setting [2], above 3200 nM; under setting [4], above 1000 nM; under setting [5], around 4900 nM.
`CCc1ccccc1Oc1ccc(C2CC(=O)N(Cc3cccc(C)n3)C2)c(C(N)=O)c1` (stereo not drawn) [Compound 2-98, 5-(2-ethylphenoxy)-2-(1-((6-methylpyridin-2-yl)methyl)-5-oxopyrrolidin-3-yl)benzamide]: the IC50 is, setting by setting: under setting [3], above 3200 nM; under setting [1], above 1000 nM.
Turning to `OCc1cc(Oc2ccccc2F)ccc1N1CC[C@H](Oc2ncccc2F)C1` [Compound 1-298, (S)-(5-(2-fluorophenoxy)-2-(3-(3-fluoropyridin-2-yloxy)pyrrolidin-1-yl)phenyl)methanol], the IC50 was 10 to 100 nM under setting [1], 65.7 nM under setting [2], 10 to 100 nM under setting [4] and 52.9 nM under setting [5].
`Cc1ccc(O[C@H]2CCN(c3ccc(-c4ccccc4)nc3CCO)C2)nc1` [Compound 1-215]: the IC50 by setting is: under setting [1], above 1000 nM; under setting [2], 1000 nM.
Consider `O=C(c1ncccc1Cl)N1CCC(c2ccc(Oc3ccccc3)cc2CO)C1` (stereo not drawn) [Compound 2-85, (3-chloropyridin-2-yl)(3-(2-(hydroxymethyl)-4-phenoxyphenyl)pyrrolidin-1-yl)methanone], for which, under setting [3], the IC50 came out at 3310 nM.
`NCc1ccc(N2CC[C@H](Oc3ccc(C(F)(F)F)cn3)C2)c(C(N)=O)c1` [Compound 1-35]: the IC50 under setting [1] is above 1000 nM.
Consider “(S)-(6-(2-ethylphenoxy)-3-(3-(5-(trifluoromethyl)pyridin-2-yloxy)pyrrolidin-1-yl)pyridin-2-yl)methanol [Compound 1-212]”, for which the IC50 is, setting by setting: under setting [1], above 1000 nM; under setting [2], above 3200 nM.
The corresponding values for `O=C(c1cccc(Cl)c1)c1ccc(N2CC[C@H](Oc3ncccc3Cl)C2)c(CCO)c1` [Compound 1-328, (S)-(3-chlorophenyl)(4-(3-(3-chloropyridin-2-yloxy)pyrrolidin-1-yl)-3-(2-hydroxyethyl)phenyl)methanone] are 100 to 1000 nM and 615 nM.
As for `N#Cc1cc(-c2ccccc2)ccc1N1CCC(Oc2ccc3ccccc3n2)C1=O` (stereo not drawn) [Compound 1-108, 4-(2-oxo-3-(quinolin-2-yloxy)pyrrolidin-1-yl)biphenyl-3-carbonitrile], the IC50 is above 1000 nM under setting [4] and above 3200 nM under setting [5].
As to `Cc1ccc(C(O)c2ccc(N3CC[C@H](Oc4ncccc4Cl)C3)c(CO)c2)cc1` (stereo partly drawn) [Compound 1-287, (4-((S)-3-(3-chloropyridin-2-yloxy)pyrrolidin-1-yl)-3-(hydroxymethyl)phenyl)(p-tolyl)methanol], the IC50 was 100 to 1000 nM under setting [1] and 674 nM under setting [2].
Regarding `CCc1ccccc1Oc1ccc(C2CC(=O)N(Cc3ccc(Cl)cn3)C2)c(C(N)=O)c1` (stereo not drawn) [Compound 2-101, 2-(1-((5-chloropyridin-2-yl)methyl)-5-oxopyrrolidin-3-yl)-5-(2-ethylphenoxy)benzamide], the IC50 runs as follows: under setting [3], above 3200 nM; under setting [1], above 1000 nM.
On to `O=C1C(Oc2ccc3ccccc3n2)CCN1c1ccc(-c2ccccc2)cc1` (stereo not drawn) [Compound 1-95, 1-(biphenyl-4-yl)-3-(quinolin-2-yloxy)pyrrolidin-2-one], for which the IC50 runs as follows: under setting [1], above 1000 nM; under setting [2], above 3200 nM.
Consider `NC(=O)c1cc(-c2ccccc2)cnc1N1CC[C@@H](Oc2ccc(C(F)(F)F)cn2)C1` [Compound 1-92, (R)-5-phenyl-2-(3-(5-(trifluoromethyl)pyridin-2-yloxy)pyrrolidin-1-yl)nicotinamide], for which the “hTRPV3 (nM) (Phase 1)” value (Phase 1 current) is “Incomplete Block (Phase 1) Incomplete Block (Phase 2)”. The “hTRPV3 (nM) (Phase 2)” value (Phase 2 current) is reported as “Incomplete Block (Phase 1) Incomplete Block (Phase 2)”.
In the case of `Cc1cccc(C(=O)N2CCC(c3ccc(Oc4ccccc4C(C)C)cc3CO)C2)n1` (stereo not drawn) [Compound 2-19, (3-(2-(hydroxymethyl)-4-(2-isopropylphenoxy)phenyl)pyrrolidin-1-yl)(6-methylpyridin-2-yl)methanone], the IC50 is, setting by setting: under setting [3], 191 nM; under setting [1], 10 to 100 nM.
